Laboratory results from PubChem BioAssay AID1918948 (Molecular Pharmacology Branch, DTP, NCI, 2023).

System: K-562 leukemia growth, % test/control
Experiment: Anticancer human tumor K-562 cell line growth inhibition;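 for viability, T/C: 100% = DMSO vehicle wells and lower values mean fewer viable cells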
Conditions: spheroids with HUVEC and MSC; for IC50: curve of first compound; for viability, T/C: stronger effect = lower value; active = viability on the fitted dose curve at most 10% of control; inactive = the rest
Outline: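 Complex spheroids of tumor cells with HUVEC and human MSCs, exposed to iadademstat combined with other agents. Each agent tested in half-log steps from near clinical Cmax (else 10 microM top), DMSO ≤0.25%.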

[1] = second compound 0.1 µM, first compound 0.0316 µM
[2] = second compound 0.1 µM, first compound 0.1 µM
[3] = second compound 0.1 µM, first compound 0.316 µM
[4] = second compound 0.1 µM, first compound 1 µM
[5] = second compound 0.1 µM, first compound 3.16 µM
[6] = second compound 0.1 µM, first compound 10 µM
[7] = second compound 0.316 µM, first compound 0.0316 µM
[8] = second compound 0.316 µM, first compound 0.1 µM
[9] = second compound 0.316 µM, first compound 0.316 µM
[10] = second compound 0.316 µM, first compound 1 µM
[11] = second compound 0.316 µM, first compound 3.16 µM
[12] = second compound 0.316 µM, first compound 10 µM
[13] = second compound 1 µM, first compound 0.0316 µM
[14] = second compound 1 µM, first compound 0.1 µM
[15] = second compound 1 µM, first compound 0.316 µM
[16] = second compound 1 µM, first compound 1 µM
[17] = second compound 1 µM, first compound 3.16 µM
[18] = second compound 1 µM, first compound 10 µM
[19] = second compound 3.16 µM, first compound 0.0316 µM
[20] = second compound 3.16 µM, first compound 0.1 µM
[21] = second compound 3.16 µM, first compound 0.316 µM
[22] = second compound 3.16 µM, first compound 1 µM
[23] = second compound 3.16 µM, first compound 3.16 µM
[24] = second compound 3.16 µM, first compound 10 µM
[25] = second compound 10 µM, first compound 0.0316 µM
[26] = second compound 10 µM, first compound 0.1 µM
[27] = second compound 10 µM, first compound 0.316 µM
[28] = second compound 10 µM, first compound 1 µM
[29] = second compound 10 µM, first compound 3.16 µM
[30] = second compound 10 µM, first compound 10 µM
[31] = second compound 0.1 µM, first compound 0.00316 µM
[32] = second compound 0.1 µM, first compound 0.01 µM
[33] = second compound 0.316 µM, first compound 0.00316 µM
[34] = second compound 0.316 µM, first compound 0.01 µM
[35] = second compound 1 µM, first compound 0.00316 µM
[36] = second compound 1 µM, first compound 0.01 µM
[37] = second compound 3.16 µM, first compound 0.00316 µM
[38] = second compound 3.16 µM, first compound 0.01 µM
[39] = second compound 10 µM, first compound 0.00316 µM
[40] = second compound 10 µM, first compound 0.01 µM

CC(C)c1c(-c2ccccc2)nc2c(C#N)c[nH]n2c1=O + NC1CC1c1ccc(-c2cccc(O)c2)cc1
inactive: viability, T/C [1] 105% | viability, T/C [2] 108% | viability, T/C [3] 102% | viability, T/C [4] 107% | viability, T/C [5] 111% | viability, T/C [6] 106% | viability, T/C [7] 102% | viability, T/C [8] 103% | viability, T/C [9] 102% | viability, T/C [10] 105% | viability, T/C [11] 106% | viability, T/C [12] 98.9% | viability, T/C [13] 97.8% | viability, T/C [14] 103% | viability, T/C [15] 95.5% | viability, T/C [16] 101% | viability, T/C [17] 99.4% | viability, T/C [18] 96.4% | viability, T/C [19] 102% | viability, T/C [20] 97.7% | viability, T/C [21] 100% | viability, T/C [22] 97.2% | viability, T/C [23] 99.2% | viability, T/C [24] 95.9% | viability, T/C [25] 99.4% | viability, T/C [26] 96.1% | viability, T/C [27] 96.5% | viability, T/C [28] 98.3% | viability, T/C [29] 98.3% | viability, T/C [30] 92%
> 10000 nM: IC50 (second compound 0.1 µM) | IC50 (second compound 0.316 µM) | IC50 (second compound 1 µM) | IC50 (second compound 3.16 µM) | IC50 (second compound 10 µM)

CC1COCCN1c1cc(-c2ccnn2C)c2ccnc(-c3ccn[nH]3)c2n1 (stereo not given) + NC1CC1c1ccc(-c2cccc(O)c2)cc1
< 3.16 nM: IC50 (second compound 0.1 µM) | IC50 (second compound 0.316 µM) | IC50 (second compound 1 µM) | IC50 (second compound 3.16 µM) | IC50 (second compound 10 µM)
inactive: viability, T/C [31] 28.6% | viability, T/C [32] 16.1% | viability, T/C [33] 24.4% | viability, T/C [35] 16.4% | viability, T/C [37] 10.6%
active: viability, T/C [1] 2.71% | viability, T/C [2] 1.86% | viability, T/C [3] 2.44% | viability, T/C [4] 2.27% | viability, T/C [34] 10.3% | viability, T/C [7] 2.23% | viability, T/C [8] 1.78% | viability, T/C [9] 1.8% | viability, T/C [10] 1.5% | viability, T/C [36] 7.71% | viability, T/C [13] 2.17% | viability, T/C [14] 1.57% | viability, T/C [15] 1.71% | viability, T/C [16] 1.4% | viability, T/C [38] 5.99% | viability, T/C [19] 2.11% | viability, T/C [20] 1.71% | viability, T/C [21] 1.83% | viability, T/C [22] 1.4% | viability, T/C [39] 6.46% | viability, T/C [40] 4.59% | viability, T/C [25] 2.33% | viability, T/C [26] 1.51% | viability, T/C [27] 1.64% | viability, T/C [28] 1.74%

COc1ccc([C@@H](O)c2cc(-c3ncnc4cc(N5CCOCC5)ccc34)c(F)cc2Cl)nn1 + NC1CC1c1ccc(-c2cccc(O)c2)cc1
inactive: viability, T/C [1] 111% | viability, T/C [2] 107% | viability, T/C [3] 106% | viability, T/C [4] 106% | viability, T/C [5] 93.1% | viability, T/C [6] 38.8% | viability, T/C [7] 104% | viability, T/C [8] 107% | viability, T/C [9] 101% | viability, T/C [10] 98.6% | viability, T/C [11] 85.4% | viability, T/C [12] 38.2% | viability, T/C [13] 99.1% | viability, T/C [14] 98.8% | viability, T/C [15] 99.5% | viability, T/C [16] 98.3% | viability, T/C [17] 77% | viability, T/C [18] 33.8% | viability, T/C [19] 103% | viability, T/C [20] 99.6% | viability, T/C [21] 94.2% | viability, T/C [22] 83.5% | viability, T/C [23] 59.7% | viability, T/C [24] 32.7% | viability, T/C [25] 96.6% | viability, T/C [26] 96.9% | viability, T/C [27] 66.7% | viability, T/C [28] 52.9% | viability, T/C [29] 38.9% | viability, T/C [30] 24.6%
6490 nM: IC50 (second compound 1 µM)
4840 nM: IC50 (second compound 3.16 µM)
7530 nM: IC50 (second compound 0.316 µM)
7900 nM: IC50 (second compound 0.1 µM)
1160 nM: IC50 (second compound 10 µM)

O=C(C=Cn1cnc(-c2cc(C(F)(F)F)cc(C(F)(F)F)c2)n1)NNc1cnccn1 + NC1CC1c1ccc(-c2cccc(O)c2)cc1
66.7 nM: IC50 (second compound 3.16 µM)
active: viability, T/C [4] 1.19% | viability, T/C [9] 9.06% | viability, T/C [10] 1.23% | viability, T/C [15] 8.67% | viability, T/C [16] 1.78% | viability, T/C [21] 8.04% | viability, T/C [22] 1.27% | viability, T/C [27] 6.57% | viability, T/C [28] 2.98%
67.6 nM: IC50 (second compound 1 µM)
50.2 nM: IC50 (second compound 10 µM)
inactive: viability, T/C [31] 106% | viability, T/C [32] 103% | viability, T/C [1] 93.5% | viability, T/C [2] 56.2% | viability, T/C [3] 9.94% | viability, T/C [33] 106% | viability, T/C [34] 103% | viability, T/C [7] 83.1% | viability, T/C [8] 40.1% | viability, T/C [35] 102% | viability, T/C [36] 96.4% | viability, T/C [13] 80.7% | viability, T/C [14] 34% | viability, T/C [37] 97% | viability, T/C [38] 94.9% | viability, T/C [19] 73.4% | viability, T/C [20] 37.6% | viability, T/C [39] 91.4% | viability, T/C [40] 91.3% | viability, T/C [25] 59.8% | viability, T/C [26] 32.7%
115 nM: IC50 (second compound 0.1 µM)
76.5 nM: IC50 (second compound 0.316 µM)

Nc1ncn(C2CC(O)C(CO)O2)c(=O)n1 (stereo not given) + NC1CCC(NC2CC2c2ccccc2)CC1
inactive: viability, T/C [31] 102% | viability, T/C [32] 98.2% | viability, T/C [1] 89.2% | viability, T/C [2] 71.4% | viability, T/C [3] 54.7% | viability, T/C [4] 47.8% | viability, T/C [33] 104% | viability, T/C [34] 100% | viability, T/C [7] 90.3% | viability, T/C [8] 71% | viability, T/C [9] 56.4% | viability, T/C [10] 48% | viability, T/C [35] 103% | viability, T/C [36] 100% | viability, T/C [13] 89.4% | viability, T/C [14] 72.4% | viability, T/C [15] 56.3% | viability, T/C [16] 46.1% | viability, T/C [37] 102% | viability, T/C [38] 99.5% | viability, T/C [19] 88.1% | viability, T/C [20] 68.4% | viability, T/C [21] 50.8% | viability, T/C [22] 45% | viability, T/C [39] 89.3% | viability, T/C [40] 84.5% | viability, T/C [25] 64.2% | viability, T/C [26] 45% | viability, T/C [27] 25.6% | viability, T/C [28] 24.9%
695 nM: IC50 (second compound 0.1 µM)
640 nM: IC50 (second compound 1 µM)
69.5 nM: IC50 (second compound 10 µM)
770 nM: IC50 (second compound 0.316 µM)
396 nM: IC50 (second compound 3.16 µM)
